Blank lines part the entries; values can stand above or below the compound they belong to.
Experiments:
HEK293T cells [1] = experiment: Lactate dehydrogenase cytotoxicity assay; format: cell-based, human; conditions: LDH release, hypoxia 24 h, compared to vehicle treatment (FIG. 3b)
Procedure: HEK293T cells were seeded at 2 × 10^3 cells/well in 96-well plates and cultured at 37 °C for 24 h. Next, the cells were treated with various concentrations of steppogenin for 24 h under hypoxia conditions. Lactate dehydrogenase (LDH) release values were evaluated using the Cytotoxicity LDH Assay Kit-WST (DOJINDO) according to the manufacturer's instructions. Cytotoxicity was measured using a microplate reader (Infinite M200 Pro; TECAN) at 490 nm.

[2] = tested on: Lewis lung carcinoma (LLC)-allografted tumor models; experiment: Lewis lung carcinoma allograft tumor model with immunohistochemical analysis; format: in vivo, C57BL/6J mice; conditions: for average body weights between the groups during the administration period: intraperitoneal (FIG. 6b)
Procedure: Six-week-old adult male C57BL/6J mice (SLC, Japan) were used and housed in a specific pathogen-free facility with an individual ventilation system at Kyungpook National University.
To manufacture Lewis lung carcinoma (LLC)-allografted tumor models, LLC cell suspensions (5 × 10^5 cells in 200 µL of serum-free culture medium) were subcutaneously transplanted into the dorsal flank area of 6-week-old male C57BL/6J mice. After inoculating the LLC cells, the mice were administered 17-AAG (25 mg/kg) or steppogenin (2 mg/kg) via intraperitoneal injection at various time points. Next, tumor volumes were measured according to the following formula: V = 0.5 × A × B^2, where A and B represent the longest and shortest dimensions, respectively. Finally, the mice were anesthetized and tissues were collected for further analysis.
For immunohistochemical analysis, collected tumor or tissue samples were fixed in 4% paraformaldehyde and embedded in tissue-freezing medium (Leica, Wetzlar, Germany). Frozen blocks were cut into 10 µm sample sections, blocked with 3% BSA in PBST (0.3% Triton X-100 in PBS), and incubated overnight at 4 °C with appropriate primary antibodies. Primary antibodies were as follows: anti-CD34 (Boster Bio, CA, USA), anti-DLL4 (R&D Systems, MN, USA), anti-pimonidazole (Hypoxyprobe-1, HPI, MA, USA), anti-CD3 (Abcam), anti-CD4 (Invitrogen), and anti-CD8 (Invitrogen). After several washes, the samples were incubated with recommended fluorophore-tagged secondary antibodies for 1 hour at room temperature. Next, cell nuclei were stained using Antifade Mounting Medium containing DAPI (Vector Laboratories, Burlingame, CA). Immunofluorescence images were acquired using a Zeiss confocal microscope (Carl Zeiss, Germany). Next, pimonidazole hydrochloride (60 mg/kg; Hypoxyprobe-1, HPI) was injected intravenously through the tail vein of mice and anesthetized 90 minutes later. Finally, tumor tissues were collected for further analysis.
To determine whether steppogenin induces vascular normalization, T-cell infiltration in tumor tissues was examined.

HEK293T cells [3] = experiment: Cell counting kit-8 assay (cell viability under hypoxic conditions); format: cell-based, human; conditions: hypoxia, compared to vehicle treatment (FIG. 3a)
Procedure: HEK293T cells were seeded at a density of 5 × 10^3 cells/well in 96-well plates and cultured at 37°C for 24 h. After 24 hours, the natural compounds were diluted in the medium according to the concentration and replaced. Cell viability was determined after exposure to hypoxic conditions for 24 h using the Cell Counting Kit-8 (DOJINDO, Rockville, MD, USA) according to the manufacturer's instructions, and measured using a microplate reader (Infinite M200 Pro; TECAN, Mannedorf, Switzerland) at 450 nm.
To test the inhibitory activity of 70 natural compounds on HIF-1 and DLL4 activity, their cytotoxic effects on immortalized normal cells were first tested under hypoxia conditions. In particular, under these conditions, HEK293T cells were treated with compounds at various concentrations (0.1 to 10 µM).

DLL4 [4] = experiment: DLL4-luciferase dual-luciferase assay in EA.hy926 cells with VEGF; format: cell-based, human
Procedure: (§1) To perform the HRE-luciferase assay, HEK293T cells were seeded in a 96-well plate at a density of 5×10^3 cells/well and cultured at 37°C. Next, cells were co-transfected with pGL3-HRE-luciferase plasmid and pRL-SV40 Renilla plasmid containing 5 copies of HRE of human VEGF gene using a vivamagic transfection reagent (Vivagen, Seongnam, Korea) (Kwon et al., 2015). After 24 h, cells were pretreated with various concentrations of natural compounds for 1 h and then incubated under hypoxia conditions for 24 h. To perform the DLL4-luciferase assay, EA.hy926 cells were seeded in 24-well plates at a density of 4 × 10^4 cells/well and cultured at 37 °C for 24 h. Cells were co-transfected with pGL3-DLL4 luciferase and pRL-SV40 Renilla plasmids using Lipofectamine 2000 (Invitrogen) and cultured at 37°C for 24 h. Next, the cells were incubated with various concentrations of natural compounds for 1 h and then incubated for 24 h in the presence or absence of VEGF (10 ng/mL). The luminescence of HRE- and DLL4-promoter activities was detected using a microplate reader and the Dual-Luciferase Assay Kit (Promega, Madison, WI, USA) according to the manufacturer's instructions. The luciferase activity of the natural compounds was normalized to Renilla luciferase activity.

DLL4 [5] = experiment: Western blot analysis of VEGF-induced DLL4 protein level in endothelial cells; format: cell-based, human
Procedure: (§2) Proteins were extracted from cultured cells using RIPA lysis buffer (Thermo Scientific, Waltham, MA, USA). The protein extracts were separated using SDS-PAGE and transferred to nitrocellulose membranes (Whatman, Maidstone, England). The membranes were blocked with 5% skim milk in Tris-buffered saline containing 0.1% Tween-20 for 1 hour at room temperature. After blocking, the membranes were incubated with specific primary antibodies overnight at 4°C, and then incubated with secondary antibodies for 1 hour at room temperature. Proteins were detected using the Enhanced Chemiluminescence Kit (Bio-Rad, Hercules, CA, USA) according to the manufacturer's instructions. Primary antibodies against HIF-1α (BD Biosciences, San Diego, CA, USA), VEGF (Santa Cruz Biotechnology, Santa Cruz, CA, USA), CXCR4 (Abcam, Cambridge, UK), CA9 (Abcam), DLL4 (Santa Cruz Biotechnology), NOTCH1 (Thermo Scientific), and β-actin (Santa Cruz Biotechnology) were used.

HIF-1α [6] = experiment: Immunofluorescence staining of intranuclear HIF-1α; format: cell-based, human; conditions: A549 cells, hypoxia 4 h, immunofluorescence (FIG. 4b)
Procedure: Cells were seeded at a density of 2 × 10^4 - 3 × 10^4 cells/well on coverslips of 4-well plates and cultured for 24 h. For HIF-1α staining, A549 cells were treated with various compounds and incubated under normoxia or hypoxia conditions for 4 h. […] Next, the cells were fixed with 4% paraformaldehyde and permeabilized with 1% Triton X-100. The fixed cells were blocked with phosphate-buffered saline (PBS) containing 3% bovine serum albumin (BSA) and then incubated with primary antibodies overnight. After incubation, the cells were incubated with secondary antibodies for 1 hour and their nuclei were stained using DAPI. The stained cells were visualized using a confocal microscope (Leica TCS SP5 II Dichroic/CS, Leica, Germany).

Ki-67 = experiment: Immunofluorescence staining of Ki-67 in endothelial cells; format: cell-based, human; conditions: hypoxia
Procedure: (§3) Cells were seeded at a density of 2 × 10^4 - 3 × 10^4 cells/well on coverslips of 4-well plates and cultured for 24 h. For HIF-1α staining, A549 cells were treated with various compounds and incubated under normoxia or hypoxia conditions for 4 h. For Ki-67 and DLL4 staining, EA.hy926 cells were treated with the same compounds and maintained under VEGF (20 ng/mL) treatment. Next, the cells were fixed with 4% paraformaldehyde and permeabilized with 1% Triton X-100. The fixed cells were blocked with phosphate-buffered saline (PBS) containing 3% bovine serum albumin (BSA) and then incubated with primary antibodies overnight. After incubation, the cells were incubated with secondary antibodies for 1 hour and their nuclei were stained using DAPI. The stained cells were visualized using a confocal microscope (Leica TCS SP5 II Dichroic/CS, Leica, Germany).

[7] = tested on: HIF-1α target genes VEGF, GLUT1, CXCR4, and CA9; experiment: Real-time qRT-PCR of HIF-1α target gene mRNA; format: cell-based; conditions: hypoxia (FIG. 4c)
Procedure: Total RNA was isolated using TRIzol Reagent (Invitrogen). The isolated RNA was used to synthesize cDNA using ReverTra Ace qPCR RT Master Mix (TOYOBO, Osaka, Japan) according to the manufacturer's protocol. The synthesized cDNA was mixed with gene-specific primers. Amplification real-time polymerase chain reaction (PCR) was performed using SYBR Green PCR Master Mix (Applied Biosystems, CA, USA). The heat cycle proceeded as follows: 50 °C for 2 min, 95 °C for 10 min, 40 cycles of denaturation at 95 °C for 15 s, and annealing at 60 °C for 1 min. Mean cycle threshold values were used to calculate mRNA expression with normalization to β-actin as an internal control.

HIF-1α [8] = experiment: Western blot analysis of HIF-1α protein expression under hypoxia; format: cell-based, human; conditions: for HIF-1α protein levels: dose-dependent, maximum dose 3 µM (FIG. 4a)
Procedure: as §2
To determine the effect of the selected natural compounds on HIF-1α protein expression, Western blotting was performed on HEK293T cells. […] Accordingly, the effect of five compounds with HIF-1α inhibitory activity on DLL4 reporter activity in ECs was also investigated. […] Therefore, Compound #57 was selected as a potential inhibitor of HIF-1α and DLL4.

EA.hy 926 cell = experiment: Spheroid sprouting assay; format: cell-based, human; conditions: VEGF treatment, 2 days (FIG. 5d)
Procedure: EA.hy 926 cell suspension (5×10^3 cells) was distributed on the lid of a 100 mm dish using a hanging-drop method and maintained for 24 hours. The next day, spheroids were harvested and mixed with Methocel stock solution containing 20% FBS. Next, spheroids containing Methocel solution were seeded in 24-well plates. After incubation at 37°C for 30 minutes, VEGF or steppogenin was added to the polymerized Methocel solution and incubated for 2 days.

Notch1, and NICD = experiment: Western blot analysis of VEGF-induced Notch1 and NICD protein levels; format: cell-based, human; conditions: HUVECs (FIG. 5a)
Procedure: as §2

HIF-1α [9] = experiment: HRE-luciferase dual-luciferase assay (HIF-1α promoter reporter activity); format: cell-based, human
Procedure: as §1
To select potential HIF-1α inhibitors, the effects of 70 natural compounds were tested on HIF-1α promoter reporter activity using a dual-luciferase assay.

DLL4 [10] = experiment: Immunofluorescence staining of DLL4 in endothelial cells; format: cell-based, human; conditions: hypoxia, immunofluorescence (FIG. 5b)
Procedure: as §3

[11] = tested on: HIF-1α target genes VEGF, GLUT1, CXCR4, and CA9; experiment: Western blot analysis of HIF-1α target gene protein levels; format: cell-based; conditions: hypoxia, compared to vehicle control group (FIG. 4d)
Procedure: as §2

EA.hy926 cells = experiment: Wound-healing migration assay; format: cell-based, human
Procedure: EA.hy926 cells were seeded at a density of 4 × 10^4 cells/well in 12-well plates and incubated for 24 hours. The cells were starved overnight in a serum-free medium and treated with mitomycin C (0.5 µg/mL) for 1 h. When confluent, a wound was made with a pipette tip and the cells were washed with a serum-free medium to remove cell debris. Next, the plates were treated with a conditioned medium collected from HEK293T cell cultures under hypoxia conditions treated with steppogenin. Wound closure was monitored and photographs were taken at 0 h and 8 h. Cell migration was measured by calculating the wound area between 0 h and 8 h.

[12] = 17-AAG 25 mg/kg, steppogenin 2 mg/kg
[13] = immunohistochemical staining, compared to control group, 17-AAG 25 mg/kg, steppogenin 2 mg/kg (FIG. 6c)
[14] = tumor tissues, steppogenin 2 mg/kg (FIG. 6e)
[15] = ECs, VEGF treatment, screening (FIG. 2c)

IC50 (DLL4 [4]; Homo sapiens, EA.hy 926, EA.hy926 cells (FIG. 3f)): 8.46 ± 1.08 µM
HRE-luciferase reporter activity (HIF-1α [9]; 0.1 to 10 µM, dose-dependent, hypoxia (FIG. 3c)): significantly inhibited
IC50 (HIF-1α [9]; Homo sapiens, 72 h, HRE-luciferase reporter, hypoxia (FIG. 3d), read-out: half-maximal inhibitory concentration (IC50) for HIF-1α activity): 0.56 ± 0.043 µM
SMILES: O=C1C[C@@H](c2ccc(O)cc2O)Oc2cc(O)cc(O)c21 [steppogenin, (2S)-2-(2,4-dihydroxyphenyl)-5,7-dihydroxy-2,3-dihydrochromen-4-one]
cytotoxicity (HEK293T cells [1]): not altered
average body weights between the groups during the administration period [2, 12]: no significant difference
tumor growth ([2]; 17-AAG 25 mg/kg, steppogenin 2 mg/kg, intraperitoneal, days 7, 9, 11, 13, 15 (FIG. 6a)): significantly inhibited
HIF-1α expression level in tumors [2, 13]: significantly reduced
hypoxic region in tumors [2, 13]: significantly reduced
microvessel density analyzed using CD34 antibody ([2]; steppogenin 2 mg/kg, compared to control tissue (FIG. 6d)): significantly reduced
infiltration of CD3+ T cells [2, 14]: significantly increased
ratio of CD8+ to CD4+ T cells in tumors [2, 14]: decreased
dose-dependent cell viability (HEK293T cells [3]): not altered
DLL4-luciferase reporter activity (DLL4 [4]; 0.3 to 10.0 µM, VEGF-treated (FIG. 3e)): significantly reduced
DLL4 luciferase activity induced by VEGF (DLL4 [4]; [15]): significantly suppressed
DLL4 protein level induced by VEGF (DLL4 [5]; [15]): significantly suppressed
VEGF-induced DLL4 protein levels (DLL4 [5]; HUVECs (FIG. 5a)): dose-dependently reduced
intranuclear expression of HIF-1α (HIF-1α [6]): decreased
level of Ki-67, a cell proliferation marker (Ki-67): decreased
mRNA expression of CA9 [7]: inhibited
mRNA expression of CXCR4 [7]: inhibited
mRNA expression of GLUT1 [7]: inhibited
mRNA expression of VEGF [7]: inhibited
HIF-1α protein levels (HIF-1α [8]; A549, hypoxia): significantly inhibited
HIF-1α protein levels (HIF-1α [8]; ARPE19, hypoxia): significantly inhibited
HIF-1α protein expression (HIF-1α [8]; HEK293T cells, hypoxia, screening of selected compounds (FIG. 2b)): inhibited
HIF-1α protein levels (HIF-1α [8]; HEK293T, hypoxia): significantly inhibited
germination ability (number of germinations) in 3D EC spheroid cultures (EA.hy 926 cell): significantly inhibited
VEGF-induced NICD protein levels (Notch1, and NICD): dose-dependently reduced
VEGF-induced Notch1 protein levels (Notch1, and NICD): dose-dependently reduced
HRE-luciferase activity compared to the hypoxic vehicle (DMSO) control group (HIF-1α [9]; HEK293T cells, hypoxia 24 h, screening (FIG. 2a)): < 70%
DLL4 expression in ECs (DLL4 [10]): dramatically suppressed
protein levels of CA9 [11]: suppressed
protein levels of CXCR4 [11]: suppressed
protein levels of VEGF [11]: suppressed
wound closure (EA.hy926 cells; HUVECs, hypoxia, 0 h to 8 h (FIG. 5c)): significantly reduced
number of migrating cells (EA.hy926 cells; hypoxia (FIG. 5c)): significantly reduced

SMILES: C=CCNC1=C2C[C@@H](C)C[C@H](OC)[C@H](O)[C@@H](C)/C=C(\C)[C@H](OC(N)=O)[C@@H](OC)/C=C\C=C(/C)C(=O)NC(=CC1=O)C2=O [Compound 17-AAG, tanespimycin, reference compound]
average body weights between the groups during the administration period [2, 12]: no significant difference
